Laboratory results published in patent publication US9451763B2, “Disinfectant formulation” (Laboratoire M2, priority 2008, dated 2016).

Tested on: Staphylococcus aureus (ATCC 6538)
Experiment: Minimum concentration for total antimicrobial activity, AOAC method 955.15 (Phenol Coefficient Method) with minor modifications
Assay type: cell-based

SMILES | antimicrobial activity (in words) | Minimal Concentration (minimum concentration for total antimicrobial activity, incorporated into composition F, contact time 10 minutes, turbidity after 72 hours at 37° C.)
Cc1ccc(C(C)C)cc1O [Carvacrol] | excellent antimicrobial activity | 0.07 v/v %
Cc1ccc(C(C)C)c(O)c1 [Thymol] | excellent antimicrobial activity | –
